Measured values as given in patent US12221434B2, “Sulfonamide carboxamide compounds” (Inflazome Limited, priority 2017, dated 2025).

Legend:
NLRP3 [1] = target: T1, NLRP3 (Homo sapiens, UniProt Q96P20); assay: Human whole blood IL1β release assay (LPS + nigericin, AlphaLisa IL-1β); assay type: cell-based; parameters: Plate out 80 μl of whole blood containing 1 μg/ml of LPS; from tissue; host or cells: human whole blood from healthy donors (Li-heparin), LPS-primed, nigericin-stimulated; settings: 1 μg/ml LPS, 10 μM nigericin, IL-1β release, read-out: HWB IC50
Method: For systemic delivery, the ability to inhibit NLRP3 when the compounds are present within the bloodstream is of great importance. For this reason, the NLRP3 inhibitory activity of a number of compounds in human whole blood was investigated in accordance with the following protocol.
Human whole blood in Li-heparin tubes was obtained from healthy donors from a volunteer donor panel. • 1. Plate out 80 μl of whole blood containing 1 μg/ml of LPS in 96-well, clear bottom cell culture plate (Corning #3585) • 2. Add 10 μl compound (8 points half-log dilution with 10 μM top dose) or vehicle (DMSO 0.1% FAC) to the appropriate wells • 3. Incubate for 3 hrs at 37° C., 5% CO2 • 4. Add 10 μl nigericin (Sigma #N7143) (10 μM FAC) to all wells • 5. Incubate for 1 hr at 37° C., 5% CO2 • 6. At the end of the incubation period, spin plates at 300×g for 5 mins to pellet cells and remove 20 μl of supernatant and add to 96-well v-bottom plates for IL-1β analysis (note: these plates containing the supernatants can be stored at −80° C. to be analysed at a later date) • 7. IL-1β was measured according to the manufacturer protocol (Perkin Elmer-AlphaLisa IL-1 Kit AL220F-5000) • 8. IC50 data is fitted to a non-linear regression equation (log inhibitor vs response-variable slope 4-parameters)

NLRP3 [2] = target: T1, NLRP3; assay: THP-1 cells pyroptosis assay (LPS + nigericin, resazurin read-out); assay type: cell-based; parameters: Seed THP-1 cells (25,000 cells/well) containing 1.0 μg/ml LPS; host or cells: THP-1 cells, LPS-primed, nigericin-stimulated; settings: 1 μg/ml LPS, 5 μM nigericin, NLRP3 inhibitory activity
Method: THP-1 cells (ATCC #TIB-202) were grown in RPMI containing L-glutamine (Gibco #11835) supplemented with 1 mM sodium pyruvate (Sigma #S8636) and penicillin (100 units/ml)/streptomycin (0.1 mg/ml) (Sigma #P4333) in 10% Fetal Bovine Serum (FBS) (Sigma #F0804). The cells were routinely passaged and grown to confluency (˜10^6 cells/ml). On the day of the experiment, THP-1 cells were harvested and resuspended into RPMI medium (without FBS). The cells were then counted and viability (>90%) checked by Trypan blue (Sigma #T8154). Appropriate dilutions were made to give a concentration of 625,000 cells/ml. To this diluted cell solution was added LPS (Sigma #L4524) to give a 1 μg/ml Final Assay Concentration (FAC). 40 μl of the final preparation was aliquoted into each well of a 96-well plate. The plate thus prepared was used for compound screening.
The following method step-by-step assay was followed for compound screening. • 1. Seed THP-1 cells (25,000 cells/well) containing 1.0 μg/ml LPS in 40 μl of RPMI medium (without FBS) in 96-well, black walled, clear bottom cell culture plates coated with poly-D-lysine (VWR #734-0317) • 2. Add 5 μl compound (8 points half-log dilution, with 10 μM top dose) or vehicle (DMSO 0.1% FAC) to the appropriate wells • 3. Incubate for 3 hrs at 37° C. and 5% CO2 • 4. Add 5 μl nigericin (Sigma #N7143) (FAC 5 μM) to all wells • 5. Incubate for 1 hr at 37° C. and 5% CO2 • 6. At the end of the incubation period, spin plates at 300×g for 3 mins and remove supernatant • 7. Then add 50 μl of resazurin (Sigma #R7017) (FAC […] resazurin in RPMI medium without FBS) and incubate plates for a further 1-1.5 h at 37° C. and 5% CO2 • 8. Plates were read in an Envision reader at Ex 560 nm and Em 590 nm • 9. IC50 data is fitted to a non-linear regression equation (log inhibitor vs response-variable slope 4-parameters) 96-Well Plate Map

T1 sequence (Q96P20 whole entry): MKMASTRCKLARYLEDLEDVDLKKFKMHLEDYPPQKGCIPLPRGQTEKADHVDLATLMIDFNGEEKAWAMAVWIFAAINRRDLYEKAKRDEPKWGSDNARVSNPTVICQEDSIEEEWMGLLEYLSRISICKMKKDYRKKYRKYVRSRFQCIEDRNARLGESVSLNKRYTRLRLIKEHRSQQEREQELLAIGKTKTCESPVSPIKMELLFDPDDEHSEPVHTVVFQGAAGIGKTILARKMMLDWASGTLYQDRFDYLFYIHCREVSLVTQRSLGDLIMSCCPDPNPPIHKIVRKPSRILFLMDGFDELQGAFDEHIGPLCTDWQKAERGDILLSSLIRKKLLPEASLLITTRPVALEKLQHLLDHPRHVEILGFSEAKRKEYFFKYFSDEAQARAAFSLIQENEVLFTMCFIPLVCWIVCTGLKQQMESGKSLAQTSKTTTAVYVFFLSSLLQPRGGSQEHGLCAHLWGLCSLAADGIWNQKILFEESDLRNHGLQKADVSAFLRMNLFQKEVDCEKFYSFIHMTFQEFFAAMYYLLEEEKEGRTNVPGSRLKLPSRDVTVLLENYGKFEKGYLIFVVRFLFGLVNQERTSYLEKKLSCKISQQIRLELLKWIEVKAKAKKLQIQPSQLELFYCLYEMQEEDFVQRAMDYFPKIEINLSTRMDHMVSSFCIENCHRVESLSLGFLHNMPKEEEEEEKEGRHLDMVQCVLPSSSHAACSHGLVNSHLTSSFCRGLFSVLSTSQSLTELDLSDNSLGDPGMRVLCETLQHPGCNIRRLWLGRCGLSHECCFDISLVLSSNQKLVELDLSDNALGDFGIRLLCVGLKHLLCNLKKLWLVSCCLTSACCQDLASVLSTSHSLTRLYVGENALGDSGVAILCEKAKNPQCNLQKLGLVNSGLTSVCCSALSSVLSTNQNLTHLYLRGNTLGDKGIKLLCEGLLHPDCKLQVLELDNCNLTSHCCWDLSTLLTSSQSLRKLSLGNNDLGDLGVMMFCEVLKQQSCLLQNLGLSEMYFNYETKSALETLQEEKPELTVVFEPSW

Compound | IC50 (NLRP3 [1]) [nM] | IC50 (NLRP3 [2]) [nM]
Cn1ccnc1Cn1ccc(S(=O)(=O)NC(=O)Nc2c3c(cc4c2CCC4)CCC3)n1 [Example 3, N-((1,2,3,5,6,7-Hexahydro-s-indacen-4-yl)carbamoyl)-1-((1-methyl-1H-imidazol-2-yl)methyl)-H-pyrazole-3-sulfonamide] | 400 to 800 | 
CN(Cc1nccn1C)C(=O)c1cc(S(=O)(=O)NC(=O)Nc2c3c(cc4c2CCC4)CCC3)nn1C [Example 8, 3-(N-((1,2,3,5,6,7-Hexahydro-s-indacen-4-yl)carbamoyl)sulfamoyl)-N,1-dimethyl-N-((1-methyl-1H-imidazol-2-yl)methyl)-1H-pyrazole-5-carboxamide] | 800 to 1600 | 40 to 160
CN(Cc1ccnn1C)C(=O)c1cc(S(=O)(=O)NC(=O)Nc2c3c(cc4c2CCC4)CCC3)nn1C [Example 10, 3-(N-((1,2,3,5,6,7-Hexahydro-s-indacen-4-yl)carbamoyl)sulfamoyl)-N,1-dimethyl-N-((1-methyl-1H-pyrazol-5-yl)methyl)-1H-pyrazole-5-carboxamide] |  | 640 to 2560
CN(Cc1nccs1)C(=O)c1cc(S(=O)(=O)NC(=O)Nc2c3c(cc4c2CCC4)CCC3)nn1C [Example 7, 3-(N-((1,2,3,5,6,7-Hexahydro-s-indacen-4-yl)carbamoyl)sulfamoyl)-N,1-dimethyl-N-(thiazol-2-ylmethyl)-1H-pyrazole-5-carboxamide] | 1600 to 3200 | 160 to 640
CN(C(=O)c1cc(S(=O)(=O)NC(=O)Nc2c3c(cc4c2CCC4)CCC3)nn1C)c1nccs1 [Example 9, 3-(N-((1,2,3,5,6,7-Hexahydro-s-indacen-4-yl)carbamoyl)sulfamoyl)-N,1-dimethyl-N-(thiazol-2-yl)-1H-pyrazole-5-carboxamide] |  | 160 to 640

Results, then the compound that gave them:

IC50 (NLRP3 [1]) [nM] | IC50 (NLRP3 [2]) [nM] | Compound
 | 640 to 2560 | O=C(Nc1c2c(cc3c1CCC3)CCC2)NS(=O)(=O)c1ccn(-c2cccnc2)n1 [Example 6, N-((1,2,3,5,6,7-Hexahydro-s-indacen-4-yl)carbamoyl)-1-(pyridin-3-yl)-1H-pyrazole-3-sulfonamide]
 | 640 to 2560 | O=C(Nc1c2c(cc3c1CCC3)CCC2)NS(=O)(=O)c1ccn(Cc2ncccn2)n1 [Example 1, N-((1,2,3,5,6,7-Hexahydro-s-indacen-4-yl)carbamoyl)-1-(pyrimidin-2-ylmethyl)-1H-pyrazole-3-sulfonamide]
3200 to 10000 | 40 to 160 | O=C(Nc1c2c(cc3c1CCC3)CCC2)NS(=O)(=O)c1ccn(Cc2ncco2)n1 [Example 2, N-((1,2,3,5,6,7-Hexahydro-s-indacen-4-yl)carbamoyl)-1-(oxazol-2-ylmethyl)-1H-pyrazole-3-sulfonamide]
 | 640 to 2560 | O=C(Nc1c2c(cc3c1CCC3)CCC2)NS(=O)(=O)c1ccn(-c2nccs2)n1 [Example 5, N-((1,2,3,5,6,7-Hexahydro-s-indacen-4-yl)carbamoyl)-1-(thiazol-2-yl)-1H-pyrazole-3-sulfonamide]
 | 640 to 2560 | O=C(Nc1c2c(cc3c1CCC3)CCC2)NS(=O)(=O)c1ccn(-c2ccccn2)n1 [Example 4, N-((1,2,3,5,6,7-Hexahydro-s-indacen-4-yl)carbamoyl)-1-(pyridin-2-yl)-1H-pyrazole-3-sulfonamide]
